Results from PMC9229798, “Antioxidant Activity and Cytotoxicity of Aromatic Oligosulfides” (Molecules, 2022).

Experiments:
[1] = TBARS accumulation in liver homogenate (long-term LPO); parameters: species or system Russian sturgeon; details: 0.1 mM
Description: The liver is the main organ that all metabolic products pass through. In addition, proteins of the antioxidant defense system are concentrated in the liver, which prevent the toxic effects of various ROS. The oxidation of liver lipids, which compose cell membranes, directly causes cell damage in vivo. Therefore, the liver is similar to biological systems and is considered as a classic model system for studying LPO processes in vitro and in vivo [56]. We studied the antioxidant potential of the compounds on a model system of a long-term process of lipid peroxidation in sturgeon liver. The assay allowed evaluation of the effect of the compounds under prolonged oxidative stress when possible an increase in peroxidation processes and a decrease of antioxidants concentration over time, and inversion of antioxidant/prooxidant properties in vitro [57].
The experiments in vitro were carried out using the liver of a Russian sturgeon raised in a unique aqua complex for the reproduction of valuable fish species of the Federal Research Center Southern Scientific Center of the Russian Academy of Sciences within the framework of State Assignment (Project No. 122020100328-1). All manipulations were conducted according to the international rules GLP (Good Laboratory Practice). The samples of fish liver were fixed in the cold.
The LPO intensity was estimated according to the accumulation of carbonyl products forming a colored complex with thiobarbituric acid (TBARS). A liver of Russian sturgeon (10 g) was homogenized in the cold, and the studied compounds were added at a concentration of 0.1 mM in EtOH to a solution of 1.2% potassium chloride (390 mL) precooled to 0–4 °C. The absence of any influence of EtOH on the LPO rate in the control was preliminarily established under these conditions. […] The supernatant was sampled, and the extinction of sample was measured using a SF-103 spectrophotometer at λ = 532 nm relative to the control sample. […]

A-549 = assay: Annexin V/Dead Cell assay; type: cell-based, human; details: A-549, 2 × IC50, 48 h
Description: (§1) Apoptosis or programmed cell death is an important and active regulatory pathway of cell growth and proliferation. Cells respond to specific induction signals by initiating intracellular processes that result in characteristic physiological changes. Among these are externalization of phosphatidylserine (PS) to the cell surface, cleavage and degradation of specific cellular proteins, compaction and fragmentation of nuclear chromatin, and loss of membrane integrity. Phosphatidylserine (PS) is normally located in the inner part of the cell membrane. In the initial stage of apoptosis, the PS residues which translocated to the extracellular are detected by Annexin V, which is a calcium-dependent phospholipid-binding protein with a high affinity for PS. Annexin V flow cytometric assay was used to evaluate the compounds’ ability to induce apoptosis and influence on cell death. HCT-116 colon carcinoma and A-549 lung adenocarcinoma cells were treated by disulfides 2 and 3.
(§2) HCT-116 (colon carcinoma) and A-549 (lung carcinoma) cells (1 × 10^6) were seeded in a six-well plate and were incubated for 24 h. […] After incubation, the cells were harvested by trypsinization, precipitated by centrifugation (3000 rpm), washed with PBS, recentrifuged, and the buffer was removed. DMEM was added to achieve a cell concentration of 400–1000 cells/µL. The Muse Annexin V & Dead Cell Kit reagent (100 µL) was added to the cells and […] for 20 min at room temperature in the dark. The results were recorded on a Muse Cell Analyzer flow cytometer (Merck, Rahway, NJ, USA).

HCT-116 = assay: Annexin V/Dead Cell assay; type: cell-based, human
Description: as §1, §2

[2] = parameters: method as in doi:10.3906/kim-1904-40; details: adrenaline autoxidation in alkaline buffer; cited from earlier work
[3] = parameters: method as in doi:10.1016/j.arabjc.2021.103068; details: read-out: DPPH IC50; cited from earlier work

c1ccc(SSSc2ccccc2)cc1 [Compound 1, diphenyl trisulfide]
melting point: 58 to 60 °C
reduction of the level of TBARS ([1]; after 1 h of incubation): 64%
reduction of the level of TBARS ([1]; after 24 h): 48%
reduction of the level of TBARS ([1]; after 48 h): 37%

COc1ccccc1SSc1ccccc1OC [Compound 2, bis(2-methoxyphenyl) disulfide]
Early Apop. (A-549): 24.0%
total apoptotic cells (A-549): 25.2%

COc1ccc(SSc2ccc(OC)c(OC)c2)cc1OC [Compound 3, bis(3,4-dimethoxyphenyl) disulfide]
Early Apop. (HCT-116; HCT-116, 2 × IC50, 24 h): 9.1%
Late Apop./Dead (HCT-116; HCT-116, 2 × IC50, 24 h): 2.7%
total apoptotic cells (HCT-116; HCT-116, 2 × IC50, 24 h): 11.8%
Late Apop./Dead (HCT-116; HCT-116, 2 × IC50, 48 h): 17.7%
total apoptotic cells (HCT-116; HCT-116, 2 × IC50, 48 h): 44%
Early Apop. (A-549): 38.2%
total apoptotic cells (A-549): 42.6%

c1ccc(SSc2ccccc2)cc1 [Compound 5, diphenyl disulfide]
Antiradical Activity, % Inhibition [2]: 56 ± 2.9 %

CC(C)(C)c1cc(SSc2cc(C(C)(C)C)c(O)c(C(C)(C)C)c2)cc(C(C)(C)C)c1O [Compound 6, bis(3,5-di-tert-butyl-4-hydroxyphenyl) disulfide]
Antiradical Activity, % Inhibition [2]: 37 ± 4.8 %
IC50 [3]: 20.09 ± 0.02 µM
